Results taken from ChEMBL document CHEMBL5724914, “Linking interpersonal differences in gut microbiota composition and drug biotransformation activity” (2024).

Assays:
[1] = (§1) The drug is tested on Z-028 corresponding to mouse gut metagenome with ENA study accession number: PRJEB37062 and ENA sample accession number: ERS12561827 for biotransformation under anaerobic condition. The drug concentrations were measured over 9 timepoints collected between 0 and 24 hours of incubation by liquid-chromatography-coupled mass spectrometry (LC–MS); settings: 2 µM
[2] = as §1, with “Z-018” for “Z-028”, “pig” for “mouse”, “ERS12561817” for “ERS12561827”; settings: 2 µM
[3] = as §1, with “Z-005” for “Z-028”, “to” for “to mouse gut”, “ERS12561805” for “ERS12561827”; settings: 2 µM
[4] = human gut metagenome, 24 h, 2 µM
[5] = as §1, with “Z-025” for “Z-028”, “rabbit” for “mouse”, “ERS12561824” for “ERS12561827”; settings: 2 µM
[6] = human gut metagenome, 24 h, 2 µM; remark: listed apart in the source
[7] = human gut metagenome, 24 h, 2 µM; remark: listed apart in the source
[8] = as §1, with “WLS-082” for “Z-028”, “human” for “mouse”, “ERS12561751” for “ERS12561827”; settings: 2 µM
[9] = as §1, with “Z-024” for “Z-028”, “pig” for “mouse”, “ERS12561823” for “ERS12561827”; settings: 2 µM
[10] = as §1, with “WLS-006” for “Z-028”, “human” for “mouse”, “ERS12561741” for “ERS12561827”; settings: 2 µM
[11] = human gut metagenome, 24 h, 2 µM; remark: listed apart in the source
[12] = as §1, with “WLS-073” for “Z-028”, “human” for “mouse”, “ERS12561749” for “ERS12561827”; settings: 2 µM
[13] = human gut metagenome, 24 h, 2 µM; remark: listed apart in the source
[14] = human gut metagenome, 24 h, 2 µM; remark: listed apart in the source
[15] = human gut metagenome, 24 h, 2 µM; remark: listed apart in the source
[16] = as §1, with “Z-009” for “Z-028”, “pig” for “mouse”, “ERS12561809” for “ERS12561827”; settings: 2 µM
[17] = human gut metagenome, 24 h, 2 µM; remark: listed apart in the source
[18] = as §1, with “Z-017” for “Z-028”, “ERS12561816” for “ERS12561827”; settings: 2 µM
[19] = human gut metagenome, 24 h, 2 µM; remark: listed apart in the source
[20] = as §1, with “WLS-086” for “Z-028”, “human” for “mouse”, “ERS12561752” for “ERS12561827”; settings: 2 µM
Note: call rule not given here.

Bacterial Biotransformation [1]	Bacterial Biotransformation [2]	Bacterial Biotransformation [3]	Bacterial Biotransformation [4]	Bacterial Biotransformation [5]	Bacterial Biotransformation [6]	Bacterial Biotransformation [7]	Bacterial Biotransformation [8]	Bacterial Biotransformation [9]	Bacterial Biotransformation [10]	Bacterial Biotransformation [11]	Bacterial Biotransformation [12]	Bacterial Biotransformation [13]	Bacterial Biotransformation [14]	Bacterial Biotransformation [15]	Bacterial Biotransformation [16]	Bacterial Biotransformation [17]	Bacterial Biotransformation [18]	Bacterial Biotransformation [19]	Bacterial Biotransformation [20]	SMILES
Compound NOT metabolized	Compound metabolized	Compound NOT metabolized	Compound metabolized	Compound NOT metabolized	Compound metabolized	Compound metabolized	Compound NOT metabolized	Compound NOT metabolized	Compound metabolized	Compound metabolized	Compound metabolized	Compound metabolized	Compound metabolized	Compound metabolized	Compound NOT metabolized	Compound metabolized	Compound NOT metabolized	Compound metabolized	Compound metabolized	COc1ccc2c(c1)c(CC(=O)O)c(C)n2C(=O)c1ccc(Cl)cc1 [INDOMETHACIN]
Compound NOT metabolized	Compound NOT metabolized	Compound NOT metabolized	Compound NOT metabolized	Compound metabolized	Compound NOT metabolized	Compound NOT metabolized	Compound NOT metabolized	Compound metabolized	Compound NOT metabolized	Compound NOT metabolized	Compound NOT metabolized	Compound NOT metabolized	Compound NOT metabolized	Compound NOT metabolized	Compound NOT metabolized	Compound NOT metabolized	Compound NOT metabolized	Compound NOT metabolized	Compound metabolized	CC(CCc1ccccc1)NCC(O)c1ccc(O)c(C(N)=O)c1 (stereo not given) [LABETALOL]
Compound NOT metabolized	Compound NOT metabolized	Compound NOT metabolized	Compound NOT metabolized	Compound NOT metabolized	Compound NOT metabolized	Compound NOT metabolized	Compound NOT metabolized	Compound NOT metabolized	Compound NOT metabolized	Compound NOT metabolized	Compound NOT metabolized	Compound NOT metabolized	Compound NOT metabolized	Compound NOT metabolized	Compound NOT metabolized	Compound NOT metabolized	Compound NOT metabolized	Compound NOT metabolized	Compound metabolized	Nc1nnc(-c2cccc(Cl)c2Cl)c(N)n1 [LAMOTRIGINE]

Further lines, the compound ahead of its results:

SMILES	Bacterial Biotransformation [1]	Bacterial Biotransformation [2]	Bacterial Biotransformation [3]	Bacterial Biotransformation [4]	Bacterial Biotransformation [5]	Bacterial Biotransformation [6]	Bacterial Biotransformation [7]	Bacterial Biotransformation [8]	Bacterial Biotransformation [9]	Bacterial Biotransformation [10]	Bacterial Biotransformation [11]	Bacterial Biotransformation [12]	Bacterial Biotransformation [13]	Bacterial Biotransformation [14]	Bacterial Biotransformation [15]	Bacterial Biotransformation [16]	Bacterial Biotransformation [17]	Bacterial Biotransformation [18]	Bacterial Biotransformation [19]	Bacterial Biotransformation [20]
CN(C)CCOC(C)(c1ccccc1)c1ccccn1.O=C(O)CCC(=O)O (stereo not given) [DOXYLAMINE SUCCINATE]	Compound NOT metabolized	Compound NOT metabolized	Compound NOT metabolized	Compound NOT metabolized	Compound NOT metabolized	Compound NOT metabolized	Compound NOT metabolized	Compound NOT metabolized	Compound NOT metabolized	Compound NOT metabolized	Compound NOT metabolized	Compound NOT metabolized	Compound NOT metabolized	Compound NOT metabolized	Compound NOT metabolized	Compound NOT metabolized	Compound NOT metabolized	Compound NOT metabolized	Compound NOT metabolized	Compound NOT metabolized
Br.CN1CCC[C@@H]1Cc1c[nH]c2ccc(CCS(=O)(=O)c3ccccc3)cc12 [ELETRIPTAN HYDROBROMIDE]	Compound NOT metabolized	Compound NOT metabolized	Compound NOT metabolized	Compound metabolized	Compound NOT metabolized	Compound NOT metabolized	Compound NOT metabolized	Compound NOT metabolized	Compound NOT metabolized	Compound NOT metabolized	Compound NOT metabolized	Compound metabolized	Compound NOT metabolized	Compound NOT metabolized	Compound metabolized	Compound NOT metabolized	Compound NOT metabolized	Compound NOT metabolized	Compound NOT metabolized	Compound metabolized
CCOc1ccc2nc(S(N)(=O)=O)sc2c1 [ETHOXZOLAMIDE]	Compound NOT metabolized	Compound NOT metabolized	Compound NOT metabolized	Compound NOT metabolized	Compound NOT metabolized	Compound NOT metabolized	Compound NOT metabolized	Compound NOT metabolized	Compound NOT metabolized	Compound NOT metabolized	Compound NOT metabolized	Compound NOT metabolized	Compound NOT metabolized	Compound NOT metabolized	Compound NOT metabolized	Compound NOT metabolized	Compound NOT metabolized	Compound NOT metabolized	Compound NOT metabolized	Compound metabolized
CC(C)(C)NC(=O)[C@H]1CC[C@H]2[C@@H]3CC[C@H]4NC(=O)C=C[C@]4(C)[C@H]3CC[C@]12C [FINASTERIDE]	Compound metabolized	Compound metabolized	Compound metabolized	Compound metabolized	Compound NOT metabolized	Compound metabolized	Compound metabolized	Compound metabolized	Compound metabolized	Compound metabolized	Compound NOT metabolized	Compound metabolized	Compound metabolized	Compound metabolized	Compound metabolized	Compound metabolized	Compound metabolized	Compound NOT metabolized	Compound metabolized	Compound metabolized
CC1Cc2ccccc2N1NC(=O)c1ccc(Cl)c(S(N)(=O)=O)c1 (stereo not given) [INDAPAMIDE]	Compound NOT metabolized	Compound NOT metabolized	Compound NOT metabolized	Compound NOT metabolized	Compound NOT metabolized	Compound NOT metabolized	Compound NOT metabolized	Compound NOT metabolized	Compound NOT metabolized	Compound NOT metabolized	Compound NOT metabolized	Compound NOT metabolized	Compound NOT metabolized	Compound NOT metabolized	Compound NOT metabolized	Compound NOT metabolized	Compound NOT metabolized	Compound NOT metabolized	Compound NOT metabolized	Compound NOT metabolized
